Test results: patent publication US20250099421A1 (priority 2023, published 2025)

How the values were obtained:
[1] = test system: rat monosodium iodoacetate model of knee osteoarthritis; settings: in vivo
[2] = cited from earlier work

Row | Compound | weight bearing asymmetry at acute time points on Day 14 versus vehicle [1] | half-life in-vivo [2]
1 | COc1cc(CNC(=O)CCCC/C=C/C(C)C)ccc1O [CAP, capsaicin] | increased weight bearing asymmetry | –
2 | C=C(C)[C@]12C[C@@H](C)[C@@]34O[C@](Cc5ccccc5)(O[C@@H]1[C@@H]3C=C(COC(=O)Cc1ccc(O)c(OC)c1)C[C@]1(O)C(=O)C(C)=C[C@@H]41)O2 [RTX, resiniferatoxin] | increased weight bearing asymmetry | –
3 | hyaluronic acid [HA] | – | hours-days
